Laboratory results as given in publication PMC8000041, “New Insights into the Metabolism of the Flavanones Eriocitrin and Hesperidin: A Comparative Human Pharmacokinetic Study” (Antioxidants, 2021).
Where two headings read alike, the source gives them in different places.

Legend:
[1] = Urinary excretion of flavanone-derived metabolites after single intake of lemon or orange extract (UPLC-ESI-QTOF-MS); format: in vivo, human; details: for Urinary excretion F1: urine fraction 0-4 h; for Urinary excretion F1 / Urinary excretion Total F / Urinary excretion F2 / Urinary excretion F3 / Urinary excretion F4: mean ± SD; for Urinary excretion Total F: sum of fractions F1-F4 (24 h); for Urinary excretion F2: urine fraction 4-8 h; for Urinary excretion F3: urine fraction 8-10 h; for Urinary excretion F4: urine fraction 10-24 h; for Occurrence Urine LE (number of volunteers in whom the metabolite was detected): after consuming lemon extract; for Occurrence Urine LE (number of volunteers in whom the metabolite was detected) / Occurrence Urine OE (number of volunteers in whom the metabolite was detected): n = 16 volunteers; for Occurrence Urine OE (number of volunteers in whom the metabolite was detected): after consuming orange extract; for Urinary excretion after lemon extract vs. orange extract: ratio lemon / orange extract intake
From the text: Secondary endpoints involved the evaluation of post-prandial changes in several biomarkers dealing with metabolism, inflammation, and oxidative stress after a high-fat-high-sugars meal. The design was a randomized pharmacokinetic, double-blind, crossover, single-dose trial consisted of 2 test-phases. The volunteers were randomly allocated into two groups using a computerized random number list. Each group consumed one of the citrus extracts by following a test-phase that lasted for 1 day for blood sampling and urine collection, a 2-week washout period between each test phase, and crossover before consuming the other extract. The volunteers were instructed to avoid the consumption of flavanone-containing products, from a list provided by the researchers, for 1 week before the study and during the wash-out phase (citrus fruit juices, tomatoes, tomato-based sauces (like ‘ketchup’), peppers, almonds, etc.). […] The 3 capsules provided a total of 1.95 g orange extract, containing 260 mg hesperidin, and 3.1 g lemon extract, containing 260 mg eriocitrin. […] Untreated urine samples were aliquoted and frozen at −80 °C for up to 4 weeks until analyses, avoiding freeze-thaw cycles to avoid metabolites’ deconjugation. Moreover, three measurements of blood pressure and heart rate were taken before each time-point of blood withdrawal. […] A previously validated method for analyzing phenolic metabolites in biological samples, including flavanone-derived metabolites, was used. […] After centrifugation at 14,000× g for 10 min at 4 °C, the supernatant was evaporated in a speed vacuum concentrator. Finally, samples were re-suspended in 100 µL of methanol, filtered through a 0.22 µm cellulose filters before analysis by UPLC- ESI-QTOF-MS. […] A targeted screening strategy was applied to identify metabolites that could be present after consuming the citrus extracts. Twenty-eight possible compounds were browsed in all the samples. The list of compounds included the polyphenols present in the extracts, with particular focus on the flavanone rutinosides hesperidin and eriocitrin, their respective aglycones hesperetin, and eriodictyol, as well as their derived phase-II conjugates (glucuronides, sulfates, sulfoglucuronides, etc.). The exact mass of each proposed compound was extracted using an extraction window of 0.01 m/z. The metabolites hesperetin 7-O-glucuronide, hesperetin 3′-O-glucuronide, hesperetin 3-O-sulfate, naringenin 4′-O-glucuronide, and naringenin 7′-O-glucuronide were quantified with their corresponding standards. […] The parent phenolic compounds were quantified with their corresponding standards. In the case of some relevant conjugated metabolites, which standards were not available (eriodictyol and homoeriodictyol conjugates), their quantification was achieved by using relative response factors (RRFs) as previously described. Briefly, RRFs are useful to check the different responses of metabolites in the mass spectrometer vs. their UV signal. While the ionization response of free vs. conjugated forms is usually very different, their UV signal response is quite similar. To this purpose, we injected in a HPLC-DAD-ESI-Q (MS) the plasma samples (n = 5) with the highest concentrations of those conjugated metabolites. Concentrations were calculated by integrating the area from their corresponding UV peaks and compared with the UV peak area of a known concentration of their corresponding available parent compounds (eriodictyol and homoeriodictyol). The concentrations calculated were used to compare the MS response for each conjugated-aglycone pair.

[2] = Plasma metabolites and pharmacokinetics after single intake of lemon or orange extract (UPLC-ESI-QTOF-MS, non-compartmental analysis); format: in vivo, human; details: for Occurrence Plasma LE (number of volunteers in whom the metabolite was detected): after consuming lemon extract; for Occurrence Plasma LE (number of volunteers in whom the metabolite was detected) / Occurrence Plasma OE (number of volunteers in whom the metabolite was detected): n = 16 volunteers; for Occurrence Plasma OE (number of volunteers in whom the metabolite was detected): after consuming orange extract; for Tmax / Cmax / AUC(0-t): mean ± SD; for AUC(0-t): read-out: AUC0-t
From the text: Secondary endpoints involved the evaluation of post-prandial changes in several biomarkers dealing with metabolism, inflammation, and oxidative stress after a high-fat-high-sugars meal. The design was a randomized pharmacokinetic, double-blind, crossover, single-dose trial consisted of 2 test-phases. The volunteers were randomly allocated into two groups using a computerized random number list. Each group consumed one of the citrus extracts by following a test-phase that lasted for 1 day for blood sampling and urine collection, a 2-week washout period between each test phase, and crossover before consuming the other extract. The volunteers were instructed to avoid the consumption of flavanone-containing products, from a list provided by the researchers, for 1 week before the study and during the wash-out phase (citrus fruit juices, tomatoes, tomato-based sauces (like ‘ketchup’), peppers, almonds, etc.). […] The 3 capsules provided a total of 1.95 g orange extract, containing 260 mg hesperidin, and 3.1 g lemon extract, containing 260 mg eriocitrin. […] Plasma samples were obtained by centrifugation of peripheral venous blood at 14,000× g for 15 min at 4 °C and immediately frozen at −80 °C. Glucose, total cholesterol, HDL-cholesterol, LDL-cholesterol, triglycerides, insulin, homeostatic model assessment insulin resistance (HOMA-IR), gamma-glutamyl transferase (GGT), and alanine aminotransferase (ALT) were determined as previously reported. […] A previously validated method for analyzing phenolic metabolites in biological samples, including flavanone-derived metabolites, was used. […] After centrifugation at 14,000× g for 10 min at 4 °C, the supernatant was evaporated in a speed vacuum concentrator. Finally, samples were re-suspended in 100 µL of methanol, filtered through a 0.22 µm cellulose filters before analysis by UPLC- ESI-QTOF-MS. A targeted screening strategy was applied to identify metabolites that could be present after consuming the citrus extracts. Twenty-eight possible compounds were browsed in all the samples. The list of compounds included the polyphenols present in the extracts, with particular focus on the flavanone rutinosides hesperidin and eriocitrin, their respective aglycones hesperetin, and eriodictyol, as well as their derived phase-II conjugates (glucuronides, sulfates, sulfoglucuronides, etc.). The exact mass of each proposed compound was extracted using an extraction window of 0.01 m/z. The metabolites hesperetin 7-O-glucuronide, hesperetin 3′-O-glucuronide, hesperetin 3-O-sulfate, naringenin 4′-O-glucuronide, and naringenin 7′-O-glucuronide were quantified with their corresponding standards. […] The parent phenolic compounds were quantified with their corresponding standards. In the case of some relevant conjugated metabolites, which standards were not available (eriodictyol and homoeriodictyol conjugates), their quantification was achieved by using relative response factors (RRFs) as previously described. Briefly, RRFs are useful to check the different responses of metabolites in the mass spectrometer vs. their UV signal. While the ionization response of free vs. conjugated forms is usually very different, their UV signal response is quite similar. To this purpose, we injected in a HPLC-DAD-ESI-Q (MS) the plasma samples (n = 5) with the highest concentrations of those conjugated metabolites. Concentrations were calculated by integrating the area from their corresponding UV peaks and compared with the UV peak area of a known concentration of their corresponding available parent compounds (eriodictyol and homoeriodictyol). The concentrations calculated were used to compare the MS response for each conjugated-aglycone pair. Statistical analyses were carried out using the SPSS Software, version 23.0 (SPSS Inc., Chicago, IL, USA). Data are expressed as mean ± SD. The empirical distribution of data with the normality assumption was tested with the Shapiro-Wilk test. […]

[3] = lemon extract (3.1 g, 260 mg eriocitrin)
[4] = orange extract (1.95 g, 260 mg hesperidin)
[5] = after orange (hesperidin) extract
[6] = human, oral, 1.95 g, after orange (hesperidin) extract
[7] = human, oral, 1.95 g, after orange (hesperidin) extract, read-out: Tmax
[8] = human, oral, 3.1 g, after lemon extract
[9] = human, oral, 3.1 g, after lemon extract, read-out: Tmax

Structure (SMILES)	Urinary excretion F1 [1, 3] [µg/mg creatinine]	Urinary excretion F2 ([1]; lemon extract) [µg/mg creatinine]	Urinary excretion F3 ([1]; lemon extract) [µg/mg creatinine]	Urinary excretion F4 ([1]; lemon extract) [µg/mg creatinine]	Urinary excretion F1 [1, 4] [µg/mg creatinine]	Urinary excretion Total F ([1]; orange extract) [µg/mg creatinine]	Urinary excretion F2 ([1]; orange extract) [µg/mg creatinine]	Urinary excretion F3 ([1]; orange extract) [µg/mg creatinine]	Urinary excretion F4 ([1]; orange extract) [µg/mg creatinine]	Occurrence Urine LE (number of volunteers in whom the metabolite was detected) [1]	Occurrence Urine OE (number of volunteers in whom the metabolite was detected) [1]	Occurrence Plasma LE (number of volunteers in whom the metabolite was detected) [2]	Occurrence Plasma OE (number of volunteers in whom the metabolite was detected) [2]	Tmax [2, 5] [h]	Cmax [2, 6] [nM]	AUC(0-t) [2, 6] [µM·h]	Tmax [2, 7] [h]	Cmax [2, 8] [nM]	AUC(0-t) [2, 8] [µM·h]	Tmax [2, 9] [h]	further results
O=C1CC(c2ccc(OC3OC(C(=O)O)C(O)C(O)C3O)cc2)Oc2cc(O)cc(O)c21 (stereo not drawn) [M5, Naringenin 4′-O-glucuronide]	0.8 ± 0.5	1.7 ± 2.7	1.3 ± 1.5	0.4 ± 0.3	0.1 ± 0.1	1.0 ± 1.5	0.3 ± 0.5	0.3 ± 0.4	0.3 ± 0.5	16	16	16	14	7.7 ± 2.0	7.3 ± 5.9	0.0267 ± 0.0277	7.5	35.8 ± 25.9	0.129 ± 0.124	5.5	Urinary excretion Total F ([1]; lemon extract): 4.2 ± 5.0 µg/mg creatinine; Tmax ([2]; after lemon extract): 5.7 ± 2.3 h
COc1ccc(C2CC(=O)c3c(O)cc(OC4OC(C(=O)O)C(O)C(O)C4O)cc3O2)cc1O (stereo not drawn) [M7, Hesperetin 7-O-glucuronide]	1.2 ± 1.4	4.0 ± 4.7	2.7 ± 2.5	0.6 ± 0.6	0.2 ± 0.6	5.6 ± 13.2	2.1 ± 5.7	2.2 ± 3.6	1.1 ± 3.3	16	16	16	16	8.3 ± 1.6	49.6 ± 51.7	0.177 ± 0.249	8.5	169 ± 109	0.703 ± 0.591	6.5	Urinary excretion Total F ([1]; lemon extract): 8.5 ± 9.2 µg/mg creatinine; Urinary excretion after lemon extract vs. orange extract [1]: around 2 fold; Tmax ([2]; after lemon extract): 6.3 ± 2.0 h
COc1ccc(C2CC(=O)c3c(O)cc(O)cc3O2)cc1OC1OC(C(=O)O)C(O)C(O)C1O (stereo not drawn) [M8, Hesperetin 3′-O-glucuronide]	2.1 ± 2.3	10.7 ± 11.3	9.2 ± 7.7	2.2 ± 2.4	0.5 ± 1.5	9.9 ± 18.9	4.3 ± 11.5	3.3 ± 4.2	1.8 ± 1.6	16	16	16	16	8.4 ± 1.6	107 ± 128	0.409 ± 0.643	8.5	198 ± 104	0.803 ± 0.569	6.5	Urinary excretion Total F ([1]; lemon extract): 24.2 ± 23.7 µg/mg creatinine; Tmax ([2]; after lemon extract): 6.4 ± 2.0 h
O=C1C[C@@H](c2ccc(O)c(O)c2)Oc2cc(O)cc(O)c21 [M12, Eriodictyol]	–	–	–	–	–	–	–	–	–	14	4	16	0	–	–	–	–	–	–	–	–
COc1ccc(C2CC(=O)c3c(O)cc(O)cc3O2)cc1OS(=O)(=O)O (stereo not drawn) [M14, Hesperetin 3′-O-sulfate]	1.9 ± 2.6	4.3 ± 4.5	3.3 ± 3.1	0.7 ± 0.6	0.1 ± 0.3	3.8 ± 7.3	1.2 ± 3.3	1.9 ± 3.1	0.6 ± 0.6	16	16	16	16	8.4 ± 1.5	178 ± 286	0.635 ± 1.17	8.5	527 ± 358	2.04 ± 1.81	6.5 ± 1.9	Urinary excretion after lemon extract vs. orange extract [1]: around 2 fold
O=C1C[C@@H](c2ccc(O)cc2)Oc2cc(O)cc(O)c21 [M15, Naringenin]	–	–	–	–	–	–	–	–	–	9	5	6	2	–	–	–	–	–	–	–	–
